Key:
Human CCR1 = Human CCR1 (Homo sapiens (Human), UniProt P32246); test: Human CCR1 THP-1 binding assay; conditions: [125I]-MIP-1α competition, THP-1 cells
Protocol: For radioligand competition studies, a final concentration of 1×10^5 THP-1 monocytic leukemia cells are combined with 100 μg of LS WGA PS beads (Amersham, Cat.#: RPNQ 0260) in 40 μL of assay buffer (RPMI 1640 without phenol red, 50 mM HEPES, 5 mM MgCl2, 1 mM CaCl2, 0.1% BSA). The THP-1 cell/bead mixture was added to each well of a 384-well assay plate (PerkinElmer, Cat. #:6007899) containing test compound in 3-fold serial dilution, with final concentrations ranging from 8 μM to 0.14 nM. A final concentration of 0.1 nM [^125I]-MIP-1α (PerkinElmer, Cat. #NEX298) in 20 μL assay buffer was added to the reaction. Unlabeled MIP-1α was added in excess to some wells to determine non-specific binding. Sealed assay plates were incubated at room temperature for 12 h then analyzed by LEADseeker™.
The competition data of the test compound over a range of concentrations is plotted as percentage inhibition of radioligand specifically bound in the absence of test compound (percent of total signal). After correcting for non-specific binding, IC50 values are determined. The IC50 value is defined as the concentration of test compound needed to reduce [^125I]-MIP-1α specific binding by 50% and is calculated using the four parameter logistic equation to fit the normalized data. The Ki values are determined by application of the Cheng-Prusoff equation to the IC50 values, where Ki=IC50/(1+ligand concentration/Kd). The Kd of [^125I]-MIP-1α in THP-1 cells is 0.1 nM. Each experiment was run in duplicate.

Human PXR = Human PXR (Homo sapiens (Human), UniProt O75469); test: PXR transactivation assay; assay type: cell-based
Human PXR, sequence (O75469 whole entry): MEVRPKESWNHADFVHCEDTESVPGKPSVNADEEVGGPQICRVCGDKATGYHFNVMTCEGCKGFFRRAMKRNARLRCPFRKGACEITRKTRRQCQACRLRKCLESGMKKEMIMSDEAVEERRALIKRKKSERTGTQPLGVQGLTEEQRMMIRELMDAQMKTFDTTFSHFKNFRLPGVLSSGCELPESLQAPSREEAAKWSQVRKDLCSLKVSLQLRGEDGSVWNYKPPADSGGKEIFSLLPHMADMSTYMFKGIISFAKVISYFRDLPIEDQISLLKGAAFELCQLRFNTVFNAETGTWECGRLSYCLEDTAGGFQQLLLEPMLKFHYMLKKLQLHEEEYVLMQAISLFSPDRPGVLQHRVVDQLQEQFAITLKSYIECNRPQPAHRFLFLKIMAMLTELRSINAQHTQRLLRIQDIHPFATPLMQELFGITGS
From the text: The cell culture medium used is DMEM. […] Charcoal/dextran treated fetal bovine serum (FBS) was purchased from Hyclone (Logan, Utah). HepG2 cells were obtained from ATCC (Manassas, Va.). Human PXR-pcDNA3 and luciferase reporter containing CYP3A4 promoter, CYP3A-Luc, were generated at Bristol-Myers Squibb. White tissue culture (TC)-surface 384-well plates were purchased from Perkin Elmer (Boston, Mass.). Luciferase substrate (Steady-Glo) was purchased from Promega (Madison, Wis.). Control compounds rifampicin, mifepristone, and sulfinpyrazone were purchased from Sigma (St. Louis, Mo.).
Culture of HepG2 cells is performed in T175 flasks using DMEM containing 10% FBS. The transfection mixture contains 1 μg/mL of PXR-pcDNA3 plasmid DNA, 20 μg/ml of Cyp3A-Lue plasmid DNA, 90 μL/mL of Lipofectamine 2000, and serum-free medium. After incubating at room temperature for 20 minutes, the transfection mixture (1 ml per flask) is applied to the cells in fresh medium (20 mL per flask), and flasks incubated at 37° C. (5% CO2) overnight.
The flasks are then tapped vigorously to break up cell aggregates. After the addition of 8 mL of DMEM containing 5% charcoal/dextran-treated FBS, the entire mixture is transferred to conical tubes. Cells are then centrifuged at 1000 rpm for 5 minutes. Cell pellets are resuspended to a final count of ˜7×10^6 cells/ml, in freezing media (DMEM containing 20% serum and 10% DMSO). The cell suspension is aliquoted into 15-mL polypropylene tubes, 5 mL per tube. Cells are slowly frozen by placing in a Styrofoam-insulated container at −80° C. overnight. Vials are transferred to an Ultracold (−140° C.) freezer after 24 hours for long-term storage.
Vials of cryopreserved cells are thawed rapidly in a warm water bath for five minutes. Cells are pooled and diluted to 50 mL in a 50-mL conical vial. The thawed cells are centrifuged at 1500 rpm for 5 minutes to collect the cells and the supernatant discarded. Cells are then resuspended in fresh Media II (DMEM containing 5% charcoal/dextran-treated FBS, 1% Penicillin/Streptomycin, 100 μM Non-essential Amino Acids, 1 mM Sodium Pyruvate, and 2 mM L-Glutamine), counted using the Guava Cell Counter, and diluted to 1.6×10^5 cells/ml in the same media.
Fifty microliters of cell mixture is added to wells in columns 1-23 of white tissue-culture treated 384-well plates containing 0.25 μL of test compound dissolved in 100% DMSO. Fifty microliters of Media II is added to wells in column 24. The plates are incubated at 37° C. (5% CO2) for 24 hours, then 5 μL of Alamar Blue reagent (Trek Diagnostics, Cat #00-100) is added to each well. Plates are then incubated an additional two hours at 37° C., 5% CO2 and then one hour at room temperature. […] After the fluorescence is measured, 25 μL of luciferase substrate (Steady-Glo, Promega) is added to each well. The plates are incubated for fifteen minutes at room temperature, after which the luminescence is read on a PheraStar (BMG Labtech) plate reader.
Rifampicin (10 μM), a well-known agonist of PXR, is included in each plate as an internal standard and positive control. The data is then expressed as percent control (% CTRL), where the control signal is the signal from the 10 μM rifampicin and the blank signal is that from the DMSO vehicle. % CTRL=((Compound signal−Blank signal)/(Control signal−Blank signal))*100
The EC50 is defined as the concentration corresponding to half of the maximal response derived from the fitted 20-point curve as determined using a four-parameter logistic regression model. Additionally, compounds may also be reported as EC20 or EC60.

[1] = HepG2 cells, CYP3A-Luc reporter

Human CCR1, sequence (P32246 whole entry): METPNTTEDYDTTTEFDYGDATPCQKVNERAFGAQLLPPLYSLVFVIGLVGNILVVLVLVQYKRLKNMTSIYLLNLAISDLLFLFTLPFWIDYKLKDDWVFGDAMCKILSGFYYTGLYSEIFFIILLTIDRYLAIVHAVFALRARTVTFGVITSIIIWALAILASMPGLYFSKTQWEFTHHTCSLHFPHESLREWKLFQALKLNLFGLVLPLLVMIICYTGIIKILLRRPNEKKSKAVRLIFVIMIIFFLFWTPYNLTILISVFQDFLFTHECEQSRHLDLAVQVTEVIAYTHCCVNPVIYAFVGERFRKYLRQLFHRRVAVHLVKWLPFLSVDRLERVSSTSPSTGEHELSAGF

| PXR EC60 (Human PXR; HepG2 cells, CYP3A-Luc reporter, reported as EC60) [nM] | SMILES | Ki (Human CCR1) [nM] | EC50 (Human PXR; [1]) [nM] | PXR activation (in words) (Human PXR; in vitro screen) |
| --- | --- | --- | --- | --- |
|  | CC(C)[C@@H](NC(=O)C1CCCC1)C(=O)N1CC[C@](O)(c2ccc(Cl)cc2)C(C)(C)C1 [#460] | 0.7 | 530 |  |
| 1120 | CC(C)CC(=O)N[C@@H](C(=O)N1CC[C@](O)(c2ccc(Cl)cc2)C(C)(C)C1)C(C)C [#466] | 2.6 |  |  |
|  | CC(C)[C@@H](NC(=O)CC(C)(C)O)C(=O)N1CC[C@](O)(c2ccc(Cl)cc2)C(C)(C)C1 [#1356] | 3.7 | 1830 |  |
|  | CC(C)[C@@H](NC(=O)NCC(C)(C)O)C(=O)N1CC[C@](O)(c2ccc(Cl)cc2)C(C)(C)C1 [Compound I] | 0.7 | > 25000 | not a significant activator |
